Assay results: ChEMBL document CHEMBL3751695, “Cationic lipid-conjugated hydrocortisone as selective antitumor agent” (Eur J Med Chem, 2016)
The source made the active and inactive calls. No cut-off for these calls is given here.

Experiments:
MDA-MB-231 [1] = experiment: Induction of apoptosis in human MDA-MB-231 cells assessed as late apoptotic cells at 20 uM after 24 hrs by annexin-V-FITC/propidium iodide staining based flow cytometry (reference value: 3.25 %); assay type: functional
A549 [2] = experiment: Induction of apoptosis in human A549 cells assessed as necrotic cells at 20 uM after 24 hrs by annexin-V-FITC/propidium iodide staining based flow cytometry (reference value: 3.23 %); assay type: functional
RAW264.7 [3] = experiment: Induction of apoptosis in mouse RAW264.7 cells assessed as necrotic cells at 20 uM after 24 hrs by annexin-V-FITC/propidium iodide staining based flow cytometry (reference value: 1.81%); assay type: cell-based; conditions: raw264.7, 24 h
[4] = Cytotoxicity against human SKOV3 cells after 72 hrs by MTT assay; assay type: functional, cell-based; conditions: SK-OV-3, 72 h
MDA-MB-231 [5] = experiment: Induction of apoptosis in human MDA-MB-231 cells assessed as early apoptotic cells at 20 uM after 24 hrs by annexin-V-FITC/propidium iodide staining based flow cytometry (reference value: 0.58 %); assay type: functional
[6] = Antitumor activity in mouse B16F10 cells xenografted in C57BL/J mouse assessed as increase in ratio of Bax/Bcl2 in tumor lysates at 6.11 mg/kg, ip by western blot analysis (reference value: 0.4); assay type: functional, Neoplasm, B16-F10
RAW264.7 [7] = experiment: Induction of apoptosis in mouse RAW264.7 cells assessed as early apoptotic cells at 20 uM after 24 hrs by annexin-V-FITC/propidium iodide staining based flow cytometry (reference value: 3.44 %); assay type: cell-based; conditions: raw264.7, 24 h
Gallus gallus = organism: Gallus gallus; experiment: Antiangiogenic activity in chicken embryo assessed as inhibition of neovascularization at 40 uM after 4 hrs by microscopic analysis; assay type: functional, tissue-based
B16-F10 [8] = experiment: Induction of apoptosis in mouse B16F10 cells assessed as increase in p53 expression at 20 uM after 36 hrs by […]; assay type: functional, cell-based
HeLa = experiment: Cytotoxicity against human HeLa cells after 72 hrs by MTT assay; assay type: functional, cell-based
B16-F10 [9] = experiment: Induction of apoptosis in mouse B16F10 cells assessed as increase in cleaved caspase 3 level at 20 uM after 36 hrs by western blot analysis; assay type: functional, cell-based
A549 [10] = experiment: Induction of apoptosis in human A549 cells assessed as late apoptotic cells at 20 uM after 24 hrs by annexin-V-FITC/propidium iodide staining based flow cytometry (reference value: 7.40 %); assay type: functional
[11] = Induction of apoptosis in mouse NIH/3T3 cells assessed as viable cells at 20 uM after 24 hrs by annexin-V-FITC/propidium iodide staining based flow cytometry (reference value: 99.06 %); assay type: cell-based, NIH3T3; conditions: read-out: Activity
A549 [12] = experiment: Cytotoxicity against human A549 cells after 72 hrs by MTT assay; assay type: functional, cell-based; conditions: A549, 72 h
B16-F10 [13] = experiment: Induction of apoptosis in mouse B16F10 cells assessed as early apoptotic cells at 20 uM after 24 hrs by annexin-V-FITC/propidium iodide staining based flow cytometry (reference value: 0.46 %); assay type: functional
B16-F10 [14] = experiment: Induction of apoptosis in mouse B16F10 cells assessed as increase in cytochrome C level at 20 uM after 36 hrs by western blot analysis; assay type: functional, cell-based
[15] = Induction of apoptosis in mouse NIH/3T3 cells assessed as late apoptotic cells at 20 uM after 24 hrs by annexin-V-FITC/propidium iodide staining based flow cytometry (reference value: 0.28 %); assay type: cell-based; conditions: nih3t3, 24 h
[16] = Cell cycle arrest in mouse B16F10 cells assessed as accumulation at subG0/G1 phase at 20 uM after 24 hrs by propidium iodide staining based flow cytometry (reference value: 40.7 %); assay type: functional; conditions: B16-F10
[17] = Cytotoxicity against mouse B16F10 cells after 72 hrs by MTT assay; assay type: functional, cell-based; conditions: B16-F10, 72 h
B16-F10 [18] = experiment: Antitumor activity against mouse B16F10 cells xenografted in C57BL/J mouse assessed as inhibition of tumor growth at 6.11 mg/kg, ip; assay type: functional, organism-based
A549 [19] = experiment: Induction of apoptosis in human A549 cells assessed as viable cells at 20 uM after 24 hrs by annexin-V-FITC/propidium iodide staining based flow cytometry (reference value: 87.96 %); assay type: functional; conditions: A549, 24 h, read-out: Activity
B16-F10 [20] = experiment: Induction of apoptosis in mouse B16F10 cells assessed as increase in ratio of Bax/Bcl2 level at 20 uM after 36 hrs by western blot analysis (reference value: 0.2); assay type: functional
[21] = Induction of apoptosis in mouse NIH/3T3 cells assessed as early apoptotic cells at 20 uM after 24 hrs by annexin-V-FITC/propidium iodide staining based flow cytometry (reference value: 0.43 %); assay type: cell-based; conditions: nih3t3, 24 h
RAW264.7 [22] = experiment: Induction of apoptosis in mouse RAW264.7 cells assessed as late apoptotic cells at 20 uM after 24 hrs by annexin-V-FITC/propidium iodide staining based flow cytometry (reference value: 5.64 %); assay type: cell-based; conditions: raw264.7, 24 h
[23] = Cell cycle arrest in mouse B16F10 cells assessed as accumulation at G2/M phase at 20 uM after 24 hrs by propidium iodide staining based flow cytometry (reference value: 15.2 %); assay type: functional; conditions: B16-F10
[24] = Induction of apoptosis in mouse NIH/3T3 cells assessed as necrotic cells at 20 uM after 24 hrs by annexin-V-FITC/propidium iodide staining based flow cytometry (reference value: 0.24 %); assay type: cell-based; conditions: nih3t3, 24 h
[25] = Cell cycle arrest in mouse B16F10 cells assessed as accumulation at S phase at 20 uM after 24 hrs by propidium iodide staining based flow cytometry (reference value: 5.4 %); assay type: functional; conditions: B16-F10
RAW264.7 [26] = experiment: Cytotoxicity against mouse RAW264.7 cells after 72 hrs by MTT assay; assay type: cell-based; conditions: RAW264.7, 72 h
B16-F10 [27] = experiment: Induction of apoptosis in mouse B16F10 cells assessed as necrotic cells at 20 uM after 24 hrs by annexin-V-FITC/propidium iodide staining based flow cytometry (reference value: 1.41 %); assay type: functional
[28] = Cell cycle arrest in mouse B16F10 cells assessed as accumulation at G1 phase at 20 uM after 24 hrs by propidium iodide staining based flow cytometry (reference value: 38.8 %); assay type: functional; conditions: B16-F10
MDA-MB-231 [29] = experiment: Induction of apoptosis in human MDA-MB-231 cells assessed as viable cells at 20 uM after 24 hrs by annexin-V-FITC/propidium iodide staining based flow cytometry (reference value: 90.77 %); assay type: functional; conditions: MDA-MB-231, 24 h, read-out: Activity
A549 [30] = experiment: Induction of apoptosis in human A549 cells assessed as early apoptotic cells at 20 uM after 24 hrs by annexin-V-FITC/propidium iodide staining based flow cytometry (reference value: 1.41 %); assay type: functional
B16-F10 [31] = experiment: Induction of apoptosis in mouse B16F10 cells assessed as late apoptotic cells at 20 uM after 24 hrs by annexin-V-FITC/propidium iodide staining based flow cytometry (reference value: 4.47 %); assay type: functional
[32] = Cytotoxicity against mouse NIH/3T3 cells after 72 hrs by MTT assay; assay type: cell-based; conditions: NIH3T3, 72 h
[33] = Induction of apoptosis in mouse RAW264.7 cells assessed as viable cells at 20 uM after 24 hrs by annexin-V-FITC/propidium iodide staining based flow cytometry (reference value: 89.11 %); assay type: cell-based; conditions: read-out: Activity
[34] = Toxicity in C57BL/J mouse xenografted with mouse B16F10 cells assessed as mortality rate at 6.11 mg/kg, ip measured 45 days after tumor inoculation; assay type: organism-based, B16-F10; conditions: in vivo, read-out: Activity
MDA-MB-231 [35] = experiment: Induction of apoptosis in human MDA-MB-231 cells assessed as necrotic cells at 20 uM after 24 hrs by annexin-V-FITC/propidium iodide staining based flow cytometry (reference value: 5.40 %); assay type: functional
B16-F10 [36] = experiment: Induction of apoptosis in mouse B16F10 cells assessed as increased Bax expression at 20 uM after 36 hrs by western blot analysis; assay type: functional, cell-based
B16-F10 [37] = experiment: Induction of apoptosis in mouse B16F10 cells assessed as viable cells at 20 uM after 24 hrs by annexin-V-FITC/propidium iodide staining based flow cytometry (reference value: 93.66 %); assay type: functional; conditions: B16-F10, 24 h, read-out: Activity
MCF7 = experiment: Cytotoxicity against human MCF7 cells after 72 hrs by MTT assay; assay type: functional, cell-based; conditions: MCF7, 72 h
[38] = Cytotoxicity against mouse B16F10 cells at 10 uM after 72 hrs by MTT assay in presence of 10 uM HYD; assay type: functional, B16-F10
[39] = Cytotoxicity against mouse B16F10 cells at 10 and 20 uM after 72 hrs by MTT assay; assay type: functional, B16-F10
[40] = Cytotoxicity against mouse B16F10 cells at 20 uM after 72 hrs by MTT assay in presence of 20 uM HYD; assay type: functional, B16-F10

Compound	Activity (A549 [2]) [%]	Activity (RAW264.7 [3]) [%]	Activity (RAW264.7 [7]) [%]	Activity (A549 [10]) [%]	viability at 24 h, 20 µM [11] [%]	IC50 (A549 [12]) [µM]	Activity (B16-F10 [13]) [%]	Activity [15] [%]	IC50 [17] [µM]	viability at 20 µM (A549 [19]) [%]	Activity [21] [%]	Activity (RAW264.7 [22]) [%]	Activity [24] [%]	IC50 (RAW264.7 [26]) [µM]	Activity (B16-F10 [27]) [%]	Activity (A549 [30]) [%]	Activity (B16-F10 [31]) [%]	IC50 [32] [µM]	viability at 24 h, 20 µM [33] [%]	IC50 (MCF7) [µM]	other results
C[C@]12CCC(=O)C=C1CC[C@@H]1[C@@H]2[C@@H](O)C[C@@]2(C)[C@H]1CC[C@]2(O)C(=O)CO [HYDROCORTISONE]	2.97	0.69	2.39	7.09	99.5	> 20	0.77	0.16	> 20	88.4	0.01	3.13	0.1	> 20	1.04	1.55	9.14	> 20	93.8	> 20	Activity (MDA-MB-231 [1]): 8.1%; IC50 [4]: > 20 µM; Activity (MDA-MB-231 [5]): 2.05%; Ratio [6]: 0.8; inhibition (Gallus gallus): inactive; Activity (B16-F10 [8]): Active; IC50 (HeLa): > 20 µM; Activity (B16-F10 [9]): Active; Activity (B16-F10 [14]): Active; Activity [16]: 56.6%; inhibition (B16-F10 [18]): Active; Ratio (B16-F10 [20]): 0.3; Activity [23]: 17.9%; Activity [25]: 4.6%; Activity [28]: 20.9%; viability at 20 µM (MDA-MB-231 [29]): 87.4%; mortality at 1080 h [34]: 70%; Activity (MDA-MB-231 [35]): 2.46%; Activity (B16-F10 [36]): Active; viability at 20 µM (B16-F10 [37]): 89%
CCCCCCCCCC[N+](C)(CCCCCCCCCC)CCNC(=O)[C@@]1(O)CC[C@H]2[C@@H]3CCC4=CC(=O)CC[C@]4(C)[C@H]3[C@@H](O)C[C@@]21C	–	–	–	–	–	12.6	–	–	4.7	–	–	–	–	6.2	–	–	–	3.77	–	3.7	–
CCCCCCCCCCCCCC[N+](C)(CCCCCCCCCCCCCC)CCNC(=O)[C@@]1(O)CC[C@H]2[C@@H]3CCC4=CC(=O)CC[C@]4(C)[C@H]3[C@@H](O)C[C@@]21C	–	–	–	–	–	3.3	–	–	16.2	–	–	–	–	8.77	–	–	–	4.85	–	13.6	–
CCCCCCCCCCCC[N+](C)(CCCCCCCCCCCC)CCNC(=O)[C@@]1(O)CC[C@H]2[C@@H]3CCC4=CC(=O)CC[C@]4(C)[C@H]3[C@@H](O)C[C@@]21C	–	–	–	–	–	3.4	–	–	3.4	–	–	–	–	4	–	–	–	3.36	–	4.6	–
CCCCCCCC[N+](C)(CCCCCCCC)CCNC(=O)[C@@]1(O)CC[C@H]2[C@@H]3CCC4=CC(=O)CC[C@]4(C)[C@H]3[C@@H](O)C[C@@]21C	–	–	–	–	–	17.6	–	–	4.5	–	–	–	–	12.7	–	–	–	7.4	–	6.7	–
CCCCCCCCCCCCCCCC[N+](C)(CCCCCCCCCCCCCCCC)CCNC(=O)OC(C)(C)C.[Cl-]	1.65	0.86	3.66	13.95	94.9	–	1.75	0.96	–	81.7	0.94	4.18	3.23	–	4.16	2.7	12.56	–	91.3	–	Activity [38]: 20%; Activity [39]: 20%; viability at 20 µM (B16-F10 [37]): 81.5%; Activity [40]: 20%
